Measured values reported in ChEMBL document CHEMBL3792338, “Discovery of biaryls as RORγ inverse agonists by using structure-based design” (Bioorg Med Chem Lett, 2016).
≈ marks a conversion by molar mass, not a printed value.

biological target: T1, Nuclear receptor ROR-alpha (Homo sapiens, UniProt P35398); assay: Inverse agonist activity at human ROR-alpha transfected in HEK293T cells by Gal4 luciferase reporter gene assay; assay type: cell-based, HEK-293T; conditions: not given
T1 sequence (P35398 whole entry): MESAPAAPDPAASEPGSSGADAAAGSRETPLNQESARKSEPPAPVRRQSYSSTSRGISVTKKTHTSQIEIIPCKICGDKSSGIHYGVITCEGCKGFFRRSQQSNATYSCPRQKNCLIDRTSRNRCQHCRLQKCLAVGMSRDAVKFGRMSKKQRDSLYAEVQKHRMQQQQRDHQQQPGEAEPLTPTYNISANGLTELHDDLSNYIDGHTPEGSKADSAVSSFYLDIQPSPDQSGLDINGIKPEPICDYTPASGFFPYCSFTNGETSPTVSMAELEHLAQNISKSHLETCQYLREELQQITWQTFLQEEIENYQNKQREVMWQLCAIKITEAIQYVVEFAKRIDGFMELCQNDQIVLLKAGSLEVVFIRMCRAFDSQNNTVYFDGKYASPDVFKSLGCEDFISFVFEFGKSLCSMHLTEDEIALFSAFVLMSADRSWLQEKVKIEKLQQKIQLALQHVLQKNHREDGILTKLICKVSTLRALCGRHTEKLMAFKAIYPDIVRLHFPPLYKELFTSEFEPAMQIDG

Row | SMILES | EC50 [nM]
1 | NC(=O)c1ccc(Cl)c(-c2ccc3c(c2)CCCN3C(=O)c2c(F)cccc2Cl)c1 | 390

biological target: T2, Nuclear receptor ROR-gamma (Homo sapiens, UniProt P51449); assay: Inverse agonist activity at recombinant human GST-tagged ROR-gamma receptor ligand binding domain assessed as inhibition of receptor and co-activator TRAP220 interaction by FRET assay; conditions: not given
T2 sequence (P51449 whole entry): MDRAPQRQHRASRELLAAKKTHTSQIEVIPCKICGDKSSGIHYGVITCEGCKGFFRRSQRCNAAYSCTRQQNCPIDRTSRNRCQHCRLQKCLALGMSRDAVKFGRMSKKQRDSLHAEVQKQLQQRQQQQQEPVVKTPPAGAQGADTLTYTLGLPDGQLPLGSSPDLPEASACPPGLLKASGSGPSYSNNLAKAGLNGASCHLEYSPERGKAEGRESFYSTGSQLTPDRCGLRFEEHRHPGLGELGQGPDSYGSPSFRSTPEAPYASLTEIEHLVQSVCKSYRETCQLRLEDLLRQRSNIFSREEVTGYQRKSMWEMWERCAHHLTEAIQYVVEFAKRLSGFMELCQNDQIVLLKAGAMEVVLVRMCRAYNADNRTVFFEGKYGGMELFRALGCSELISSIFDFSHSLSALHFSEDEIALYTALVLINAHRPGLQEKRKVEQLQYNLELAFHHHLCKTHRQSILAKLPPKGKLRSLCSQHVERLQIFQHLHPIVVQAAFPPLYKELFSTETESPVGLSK

Row | SMILES | IC50 [nM]
2 | NC(=O)c1ccc(Cl)c(-c2ccc(N(CC(F)(F)F)S(=O)(=O)c3cccc(Cl)c3)cc2)c1 | 4200
3 | Cc1cc(O)ccc1-c1ccc(N(CC(F)(F)F)S(=O)(=O)c2cccc3c2ccn3C)cc1 | 210
4 | O=C(c1ccc(F)c(-c2ccc3c(c2)CCCN3C(=O)c2c(F)cccc2Cl)c1)N1CCCC1 | 1900
5 | CNC(=O)c1ccc(F)c(-c2ccc(N(CC(F)(F)F)S(=O)(=O)c3cccc4c3ccn4C)cc2)c1 | 4700
6 | Cc1cc(CO)ccc1-c1ccc(N(CC(F)(F)F)S(=O)(=O)c2cccc3c2ccn3C)cc1 | 630
7 | Cc1ccc(S(=O)(=O)N(CC(F)(F)F)c2ccc3c(c2)CCCN3C(=O)c2cccs2)cc1C | 200
8 | Cc1cc2nccn2cc1-c1ccc(N(CC(F)(F)F)S(=O)(=O)c2cccc3c2ccn3C)cc1 | 2800
9 | NS(=O)(=O)c1cccc(-c2ccc3c(c2)CCCN3C(=O)c2c(F)cccc2Cl)c1 | 10000
10 | Cc1ccc(S(=O)(=O)N(CC(F)(F)F)c2ccc3c(c2)CCCN3C(=O)c2c(F)cccc2Cl)cc1C | 10
11 | Cc1ccc(S(=O)(=O)Nc2ccc3c(c2)CCCN3C(=O)c2cccs2)cc1C | 1470
12 | NC(=O)c1ccccc1-c1ccc2c(c1)CCCN2C(=O)c1c(F)cccc1Cl | > 10000
13 | Cc1cc(C2(C(=O)O)CC2)ccc1-c1ccc(N(CC(F)(F)F)S(=O)(=O)c2cccc3c2ccn3C)cc1 | 910
14 | NC(=O)c1cccc(-c2ccc(N(CC(F)(F)F)S(=O)(=O)c3cccc(Cl)c3)cc2)c1 | 3800
15 | Cc1cc(O)ccc1-c1ccc(N(CC(F)(F)F)S(=O)(=O)c2cccc(Cl)c2)cc1 | 520
16 | CNS(=O)(=O)c1cccc(-c2ccc3c(c2)CCCN3C(=O)c2c(F)cccc2Cl)c1 | 6400
17 | Cn1ccc2c(S(=O)(=O)N(CC(F)(F)F)c3ccc(-c4cccc(C(N)=O)c4)cc3)cccc21 | 1500
18 | Cn1ccc2c(S(=O)(=O)N(CC(F)(F)F)c3ccc4c(c3)CCCN4C(=O)c3cccs3)cccc21 | 56
19 | O=C(c1cc(F)cc(-c2ccc3c(c2)CCCN3C(=O)c2c(F)cccc2Cl)c1)N1CCOCC1 | 8100
20 | CNC(=O)c1cccc(-c2ccc(N(CC(F)(F)F)S(=O)(=O)c3cccc4c3ccn4C)cc2)c1 | 3200
21 | CNC(=O)c1ccc(F)c(-c2ccc(N(CC(F)(F)F)S(=O)(=O)c3cccc(Cl)c3)cc2)c1 | 7800
22 | Cn1ccc2c(S(=O)(=O)N(CC(F)(F)F)c3ccc(C(O)(C(F)(F)F)C(F)(F)F)cc3)cccc21 | 72
23 | O=S(=O)(c1cccc(Cl)c1)N(CC(F)(F)F)c1ccc(C(O)(C(F)(F)F)C(F)(F)F)cc1 | 72
24 | Cc1cc(C2(C(=O)O)CC2)ccc1-c1ccc(N(CC(F)(F)F)S(=O)(=O)c2cccc(Cl)c2)cc1 | > 10000
25 | Cc1cc(CO)ccc1-c1ccc(N(CC(F)(F)F)S(=O)(=O)c2cccc(Cl)c2)cc1 | 6500
26 | CNC(=O)c1cccc(-c2ccc(N(CC(F)(F)F)S(=O)(=O)c3cccc(Cl)c3)cc2)c1 | > 10000
27 | Cc1cc2nccn2cc1-c1ccc(N(CC(F)(F)F)S(=O)(=O)c2cccc(Cl)c2)cc1 | 520

biological target: Liver X receptor (Homo sapiens) (UniProt Q13133+P55055); assay: Agonist activity at LXR (unknown origin) at 10 uM; assay type: protein assay; conditions: not given

Row | SMILES | Activity [%]
28 | Cn1ccc2c(S(=O)(=O)N(CC(F)(F)F)c3ccc(C(O)(C(F)(F)F)C(F)(F)F)cc3)cccc21 | 100
29 | O=S(=O)(c1cccc(Cl)c1)N(CC(F)(F)F)c1ccc(C(O)(C(F)(F)F)C(F)(F)F)cc1 | 100

system: not listed separately; assay: Aqueous solubility of compound at pH 6.8; assay type: physicochemical; conditions: aqueous, read-out: solubility

Row | SMILES | solubility [µg/mL]
30 | NC(=O)c1ccc(Cl)c(-c2ccc3c(c2)CCCN3C(=O)c2c(F)cccc2Cl)c1 | 0.04 (≈ 0.0902 µM)
31 | Cn1ccc2c(S(=O)(=O)N(CC(F)(F)F)c3ccc(C(O)(C(F)(F)F)C(F)(F)F)cc3)cccc21 | < 0.5
32 | O=S(=O)(c1cccc(Cl)c1)N(CC(F)(F)F)c1ccc(C(O)(C(F)(F)F)C(F)(F)F)cc1 | < 0.5

same assay, conditions: buffer

Row | SMILES | solubility
33 | Cc1ccc(S(=O)(=O)N(CC(F)(F)F)c2ccc3c(c2)CCCN3C(=O)c2c(F)cccc2Cl)cc1C | Insoluble

biological target: T3, Nuclear receptor subfamily 1 group I member 2 (Homo sapiens, UniProt O75469); assay: Agonist activity at PXR (unknown origin) at 10 uM; conditions: not given
T3 sequence (O75469 whole entry): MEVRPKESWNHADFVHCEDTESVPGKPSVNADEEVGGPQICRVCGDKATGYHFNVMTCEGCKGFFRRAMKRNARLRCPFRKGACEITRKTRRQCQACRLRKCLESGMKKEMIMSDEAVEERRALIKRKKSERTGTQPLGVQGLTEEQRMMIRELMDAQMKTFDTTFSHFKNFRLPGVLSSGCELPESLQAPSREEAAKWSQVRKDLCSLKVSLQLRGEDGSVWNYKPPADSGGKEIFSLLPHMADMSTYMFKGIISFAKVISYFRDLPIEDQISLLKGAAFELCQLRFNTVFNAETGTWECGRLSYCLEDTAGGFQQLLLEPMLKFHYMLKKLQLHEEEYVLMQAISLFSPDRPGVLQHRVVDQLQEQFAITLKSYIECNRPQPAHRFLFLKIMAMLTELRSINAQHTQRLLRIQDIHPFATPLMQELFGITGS

Row | SMILES | Activity [%]
34 | Cn1ccc2c(S(=O)(=O)N(CC(F)(F)F)c3ccc(C(O)(C(F)(F)F)C(F)(F)F)cc3)cccc21 | 100
35 | O=S(=O)(c1cccc(Cl)c1)N(CC(F)(F)F)c1ccc(C(O)(C(F)(F)F)C(F)(F)F)cc1 | 100

biological target: T4, Bile acid receptor (Homo sapiens) (UniProt Q96RI1); assay: Agonist activity at FXR (unknown origin) at 10 uM; conditions: not given
T4 sequence (whole entry): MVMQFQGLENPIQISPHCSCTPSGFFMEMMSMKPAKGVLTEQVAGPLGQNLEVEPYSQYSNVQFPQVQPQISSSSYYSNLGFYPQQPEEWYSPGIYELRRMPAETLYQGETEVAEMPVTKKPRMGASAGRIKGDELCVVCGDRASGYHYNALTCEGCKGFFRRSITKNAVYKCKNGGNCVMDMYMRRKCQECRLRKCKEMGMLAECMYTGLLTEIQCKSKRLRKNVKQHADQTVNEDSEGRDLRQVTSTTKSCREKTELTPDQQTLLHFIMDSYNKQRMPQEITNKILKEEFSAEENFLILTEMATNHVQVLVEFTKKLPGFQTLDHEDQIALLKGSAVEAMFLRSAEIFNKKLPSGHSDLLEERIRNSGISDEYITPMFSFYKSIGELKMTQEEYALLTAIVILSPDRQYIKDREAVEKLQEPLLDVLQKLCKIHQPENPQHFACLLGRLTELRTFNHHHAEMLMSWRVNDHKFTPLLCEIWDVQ

Row | SMILES | Activity [%]
36 | Cn1ccc2c(S(=O)(=O)N(CC(F)(F)F)c3ccc(C(O)(C(F)(F)F)C(F)(F)F)cc3)cccc21 | 100
37 | O=S(=O)(c1cccc(Cl)c1)N(CC(F)(F)F)c1ccc(C(O)(C(F)(F)F)C(F)(F)F)cc1 | 100

biological target: T3, Nuclear receptor subfamily 1 group I member 2; assay: Agonist activity at PXR (unknown origin); conditions: not given

Row | SMILES | Activity
38 | Cc1ccc(S(=O)(=O)N(CC(F)(F)F)c2ccc3c(c2)CCCN3C(=O)c2c(F)cccc2Cl)cc1C | Active

biological target: T5, Nuclear receptor ROR-beta (Homo sapiens, UniProt Q92753); assay: Inverse agonist activity at human ROR-beta transfected in HEK293T cells by Gal4 luciferase reporter gene assay; assay type: cell-based, HEK-293T; conditions: not given
T5 sequence (Q92753 whole entry): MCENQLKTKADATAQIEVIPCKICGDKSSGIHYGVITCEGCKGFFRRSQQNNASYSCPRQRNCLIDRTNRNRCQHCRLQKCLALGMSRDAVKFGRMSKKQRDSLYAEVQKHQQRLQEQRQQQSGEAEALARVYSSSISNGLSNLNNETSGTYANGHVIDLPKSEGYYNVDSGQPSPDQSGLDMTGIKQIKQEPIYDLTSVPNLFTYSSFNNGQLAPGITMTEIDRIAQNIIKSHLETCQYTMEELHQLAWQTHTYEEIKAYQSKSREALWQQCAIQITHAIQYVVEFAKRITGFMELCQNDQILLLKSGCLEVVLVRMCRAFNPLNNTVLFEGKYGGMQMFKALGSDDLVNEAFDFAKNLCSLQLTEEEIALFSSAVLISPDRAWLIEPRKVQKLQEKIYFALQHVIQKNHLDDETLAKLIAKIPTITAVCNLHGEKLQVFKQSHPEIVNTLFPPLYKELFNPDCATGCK

Row | SMILES | EC50 [nM]
39 | NC(=O)c1ccc(Cl)c(-c2ccc3c(c2)CCCN3C(=O)c2c(F)cccc2Cl)c1 | 1100

biological target: Cytochrome P450 3A4 (Homo sapiens, UniProt P08684); assay: Inhibition of CYP3A4 (unknown origin); assay type: ADME; conditions: not given
Sequence (P08684 whole entry): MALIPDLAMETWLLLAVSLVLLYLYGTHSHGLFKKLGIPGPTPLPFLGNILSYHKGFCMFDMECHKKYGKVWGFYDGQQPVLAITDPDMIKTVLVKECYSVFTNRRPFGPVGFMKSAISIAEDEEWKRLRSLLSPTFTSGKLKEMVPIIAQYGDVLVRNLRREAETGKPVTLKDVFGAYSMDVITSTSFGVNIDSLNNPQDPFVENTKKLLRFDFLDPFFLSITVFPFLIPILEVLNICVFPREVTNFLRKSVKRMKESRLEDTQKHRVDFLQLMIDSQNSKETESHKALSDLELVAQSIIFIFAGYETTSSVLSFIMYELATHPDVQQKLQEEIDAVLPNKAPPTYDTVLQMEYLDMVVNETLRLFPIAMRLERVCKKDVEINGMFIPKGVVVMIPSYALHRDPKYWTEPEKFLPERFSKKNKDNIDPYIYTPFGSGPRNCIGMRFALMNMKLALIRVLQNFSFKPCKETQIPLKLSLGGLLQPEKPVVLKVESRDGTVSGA

Row | SMILES | inhibition (INH)
40 | Cc1ccc(S(=O)(=O)N(CC(F)(F)F)c2ccc3c(c2)CCCN3C(=O)c2c(F)cccc2Cl)cc1C | Active
